Data as given in ChEMBL document CHEMBL5038589, “Design, Synthesis, and Structure-Activity Relationship of N-Aryl-N'-(thiophen-2-yl)thiourea Derivatives as Novel and Specific Human TLR1/2 Agonists for Potential Cancer Immunotherapy” (J Med Chem, 2021).
Calls of active or inactive are those of the source.

Columns and labels:
Toll-like receptor 2 [1] = molecular target: T1, Toll-like receptor 2 (Homo sapiens, UniProt O60603); assay: Agonist activity at TLR2 in HEK-Blue cells assessed as fold increase in activity 0.0015 to 10 uM incubated for 24 hrs by Quanti-Blue based SEAP assay; type: cell-based; conditions: HEK-Blue hTLR2, dose 0.0015-10 µM
[2] = molecular target: Toll-like receptor 4 (Homo sapiens) (UniProt O00206); assay: Agonist activity at TLR4 in HEK-Blue hTLR4 cells at 0.1 to 100 uM incubated for 24 hrs by Quanti-Blue based SEAP assay; type: cell-based; conditions: dose 0.1-100 µM
[3] = molecular target: Toll-like receptor 5 (Homo sapiens) (UniProt O60602); assay: Agonist activity at TLR5 in HEK-Blue hTLR5 cells at 0.1 to 100 uM incubated for 24 hrs by Quanti-Blue based SEAP assay; type: cell-based; conditions: dose 0.1-100 µM
[4] = molecular target: Toll-like receptor 7 (Homo sapiens) (UniProt Q9NYK1); assay: Agonist activity at TLR7 in HEK-Blue hTLR7 cells at 0.1 to 100 uM incubated for 24 hrs by Quanti-Blue based SEAP assay; type: cell-based; conditions: dose 0.1-100 µM
Toll-like receptor 2 [5] = molecular target: T1, Toll-like receptor 2; assay: Agonist activity at TLR2 in HEK-Blue hTLR2 cells at 0.2 uM incubated for 24 hrs in presence of anti-hTLR2-IgA antibodies measured by Quanti-Blue based SEAP assay; type: cell-based; conditions: filed as agonist
[6] = molecular target: Toll-like receptor 6 (Homo sapiens) (UniProt Q9Y2C9); assay: Agonist activity at TLR6 in HEK-Blue hTLR2 cells at 0.2 uM incubated for 24 hrs in presence of anti-hTLR6-IgA antibodies measured by Quanti-Blue based SEAP assay; type: cell-based
[7] = Cytotoxicity against HEK-Blue TLR2 cells upto 100 uM incubated for 24 hrs by CCK-8 assay; type: toxicity, cell-based; conditions: human, hek-blue htlr2, 24 h
[8] = Selectivity index, ratio of CC50 for HEK-Blue TLR2 cells to EC50 for agonist activity at TLR2 in HEK-Blue TLR2 cells; type: functional
HEK-Blue hTLR2 = assay: Upregulation of TLR2 expression in HEK-Blue TLR2 cells incubated for 24 hrs by Western blot analysis; type: functional, cell-based; conditions: Homo sapiens, dose 0.01-50 µM
THP-1 [9] = assay: Upregulation of TLR2 expression in human THP-1 cells at 0.01 to 50 uM incubated for 24 hrs by Western blot analysis; type: functional, cell-based; conditions: dose 0.01-50 µM
Toll-like receptor 2 [10] = molecular target: T1, Toll-like receptor 2; assay: Binding affinity to recombinant human TLR2 expressed in H5 cells by surface plasmon resonance method
THP-1 [11] = assay: Upregulation of TLR1 expression in human THP-1 cells at 20 uM by immunoprecipitation method; type: functional, cell-based
THP-1 [12] = assay: Upregulation of TLR2 expression in human THP-1 cells at 20 uM by immunoprecipitation method; type: functional, cell-based
THP-1 [13] = assay: Upregulation of MyD88 expression in human PMA-differentiated THP-1 cells in presence of T6167923 at 10 uM incubated for 2 hrs by western blot analysis; type: functional, cell-based
THP-1 [14] = assay: Upregulation of MyD88 expression in human PMA-differentiated THP-1 cells assessed as induction of IKKalpha phosphorylation at 10 uM incubated for 2 hrs by Western blot analysis; type: functional, cell-based
THP-1 [15] = assay: Upregulation of MyD88 expression in human PMA-differentiated THP-1 cells assessed as induction of IKKbeta phosphorylation at 10 uM incubated for 2 hrs by Western blot analysis; type: functional, cell-based
THP-1 [16] = assay: Upregulation of MyD88 expression in human PMA-differentiated THP-1 cells assessed as induction of p38 phosphorylation at 10 uM incubated for 2 hrs by Western blot analysis; type: functional, cell-based
THP-1 [17] = assay: Upregulation of MyD88 expression in human PMA-differentiated THP-1 cells assessed as induction of p65 phosphorylation at 10 uM incubated for 2 hrs by Western blot analysis; type: functional, cell-based
THP-1 [18] = assay: Upregulation of MyD88 expression in human PMA-differentiated THP-1 cells assessed as downregulation of IkappaBalpha at 10 uM incubated for 2 hrs by Western blot analysis; type: functional, cell-based
THP-1 [19] = assay: Induction of ERK phosphorylation in human PMA-differentiated THP-1 cells at 10 uM incubated for 2 hrs by Western blot analysis; type: functional, cell-based
THP-1 [20] = assay: Induction of JNK phosphorylation in human PMA-differentiated THP-1 cells at 10 uM incubated for 2 hrs by Western blot analysis; type: functional, cell-based
THP-1 [21] = assay: Induction of TNFalpha secretion in human PMA-differentiated THP-1 cells incubated for 24 hrs by ELISA method; type: functional, cell-based; conditions: dose 0.01-10 µM
THP-1 [22] = assay: Induction of IL-1beta secretion in human PMA-differentiated THP-1 cells incubated for 24 hrs by ELISA method; type: functional, cell-based; conditions: dose 0.01-10 µM
Macrophage [23] = assay: Induction of TNFalpha secretion in TLR2-/- C57BL/6 mouse peritoneal macrophages at 0.01 to 10 uM incubated for 24 hrs by ELISA method; type: functional, cell-based; conditions: dose 0.01-10 µM
Macrophage [24] = assay: Induction of IL-6 secretion in TLR2-/- C57BL/6 mouse peritoneal macrophages at 0.01 to 10 uM incubated for 24 hrs by ELISA method; type: functional, cell-based; conditions: dose 0.01-10 µM
Macrophage [25] = assay: Induction of IL-6 secretion in wild-type C57BL/6 mouse peritoneal macrophages at 0.01 to 10 uM incubated for 24 hrs by ELISA method; type: functional, cell-based; conditions: dose 0.01-10 µM
[26] = molecular target: Nuclear factor NF-kappa-B complex (Homo sapiens) (UniProt Q00653+P19838+Q04206); assay: Activation of NF-kappaB signalling in HEK-Blue hTLR2 cells at 10 uM in presence of triptolide; type: cell-based
CD4+ve Th = assay: Immunostimulatory activity in human CD4+ T cells at 0.1 to 10 uM incubated for 48 hrs by flow cytometry analysis; type: functional, cell-based; conditions: dose 0.1-10 µM
[27] = Immunostimulatory activity in human CD8+ T cells assessed as fold increase at 0.1 to 10 uM incubated for 48 hrs by flow cytometry analysis; type: functional, CD8-positive T cell; conditions: dose 0.1-10 µM
B cell = assay: Immunostimulatory activity in human B cells assessed as fold increase at 0.1 to 10 uM incubated for 48 hrs by flow cytometry analysis; type: functional; conditions: dose 0.1-10 µM
HCT-116 [28] = assay: Induction of apoptosis in human HCT-116 cells cocultured with PMA-differentiated THP-1 cells assessed as increase in annexin-V positive cells at 10 uM measured after 24 hrs by annexin V-FITC/PI staining based flow cytometry (reference value: 16.23%); type: functional
HCT-116 [29] = assay: Induction of apoptosis in human HCT-116 cells cocultured with PMA-differentiated THP-1 cells assessed as late apoptotic cells at 10 uM measured after 24 hrs using annexin V-FITC/PI staining based flow cytometry; type: functional
MCF7 [30] = assay: Induction of apoptosis in human MCF7 cells cocultured with PMA-differentiated THP-1 cells assessed as late apoptotic cells at 10 uM measured after 24 hrs by annexin V-FITC/PI staining based flow cytometry (reference value: 5.41 %); type: functional
[31] = Stability in mouse liver microsomes assessed as half life at 250 uM in presence of NADPH by HPLC-MS analysis; type: ADME
MCF7 [32] = assay: Induction of apoptosis in human MCF7 cells upto 100 uM by microplate reader analysis; type: functional, cell-based; conditions: dose microM <=100
THP-1 [33] = assay: Upregulation of MyD88 expression in human PMA-differentiated THP-1 cells in presence of T6167923 at 10 uM after 30 mins by western blot analysis; type: functional, cell-based

T1 sequence (O60603 whole entry): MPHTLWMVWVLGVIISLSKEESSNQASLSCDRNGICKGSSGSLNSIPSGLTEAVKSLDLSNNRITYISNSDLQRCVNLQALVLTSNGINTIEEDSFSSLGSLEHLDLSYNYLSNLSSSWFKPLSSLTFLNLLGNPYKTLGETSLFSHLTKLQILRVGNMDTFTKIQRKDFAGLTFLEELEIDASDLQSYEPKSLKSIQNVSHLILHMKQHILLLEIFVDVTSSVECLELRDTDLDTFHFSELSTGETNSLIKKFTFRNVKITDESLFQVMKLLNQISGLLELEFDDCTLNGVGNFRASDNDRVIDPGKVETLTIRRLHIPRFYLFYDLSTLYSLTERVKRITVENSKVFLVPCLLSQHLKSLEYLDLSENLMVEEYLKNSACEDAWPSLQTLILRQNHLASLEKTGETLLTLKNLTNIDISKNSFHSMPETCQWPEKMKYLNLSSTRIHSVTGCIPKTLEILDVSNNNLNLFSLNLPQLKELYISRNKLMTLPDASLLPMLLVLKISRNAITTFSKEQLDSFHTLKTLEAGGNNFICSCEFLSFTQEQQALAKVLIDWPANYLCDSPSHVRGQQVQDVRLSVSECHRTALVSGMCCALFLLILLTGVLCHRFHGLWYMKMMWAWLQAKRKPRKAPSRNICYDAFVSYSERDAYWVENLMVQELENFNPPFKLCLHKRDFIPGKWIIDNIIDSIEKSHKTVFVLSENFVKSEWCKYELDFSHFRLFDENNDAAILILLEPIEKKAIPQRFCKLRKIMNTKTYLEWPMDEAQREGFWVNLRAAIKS
Chain of Toll-like receptor 4 (Homo sapiens) (O00206 whole entry): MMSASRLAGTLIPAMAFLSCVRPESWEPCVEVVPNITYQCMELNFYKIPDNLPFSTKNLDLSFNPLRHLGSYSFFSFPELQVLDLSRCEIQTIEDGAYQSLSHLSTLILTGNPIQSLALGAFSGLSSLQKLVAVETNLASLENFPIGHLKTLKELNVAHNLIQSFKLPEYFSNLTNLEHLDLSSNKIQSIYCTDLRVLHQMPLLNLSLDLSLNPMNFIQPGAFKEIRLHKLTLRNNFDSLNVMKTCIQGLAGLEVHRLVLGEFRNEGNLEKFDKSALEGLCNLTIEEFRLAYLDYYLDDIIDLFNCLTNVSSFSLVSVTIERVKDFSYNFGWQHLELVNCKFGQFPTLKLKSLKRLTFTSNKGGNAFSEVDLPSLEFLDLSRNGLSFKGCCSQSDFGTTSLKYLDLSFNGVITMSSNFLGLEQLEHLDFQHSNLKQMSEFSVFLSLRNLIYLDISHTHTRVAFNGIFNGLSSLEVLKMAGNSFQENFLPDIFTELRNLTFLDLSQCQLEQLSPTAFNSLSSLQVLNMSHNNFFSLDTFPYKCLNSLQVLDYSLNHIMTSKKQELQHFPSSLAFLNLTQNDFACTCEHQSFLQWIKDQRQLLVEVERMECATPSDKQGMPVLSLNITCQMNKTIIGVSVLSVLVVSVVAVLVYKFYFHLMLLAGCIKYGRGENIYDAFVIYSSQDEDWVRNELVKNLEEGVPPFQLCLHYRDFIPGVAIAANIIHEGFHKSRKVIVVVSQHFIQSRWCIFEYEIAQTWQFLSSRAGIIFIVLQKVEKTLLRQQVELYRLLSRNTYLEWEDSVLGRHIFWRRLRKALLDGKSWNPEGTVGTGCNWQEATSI
Chain of Toll-like receptor 6 (Homo sapiens) (Q9Y2C9 whole entry): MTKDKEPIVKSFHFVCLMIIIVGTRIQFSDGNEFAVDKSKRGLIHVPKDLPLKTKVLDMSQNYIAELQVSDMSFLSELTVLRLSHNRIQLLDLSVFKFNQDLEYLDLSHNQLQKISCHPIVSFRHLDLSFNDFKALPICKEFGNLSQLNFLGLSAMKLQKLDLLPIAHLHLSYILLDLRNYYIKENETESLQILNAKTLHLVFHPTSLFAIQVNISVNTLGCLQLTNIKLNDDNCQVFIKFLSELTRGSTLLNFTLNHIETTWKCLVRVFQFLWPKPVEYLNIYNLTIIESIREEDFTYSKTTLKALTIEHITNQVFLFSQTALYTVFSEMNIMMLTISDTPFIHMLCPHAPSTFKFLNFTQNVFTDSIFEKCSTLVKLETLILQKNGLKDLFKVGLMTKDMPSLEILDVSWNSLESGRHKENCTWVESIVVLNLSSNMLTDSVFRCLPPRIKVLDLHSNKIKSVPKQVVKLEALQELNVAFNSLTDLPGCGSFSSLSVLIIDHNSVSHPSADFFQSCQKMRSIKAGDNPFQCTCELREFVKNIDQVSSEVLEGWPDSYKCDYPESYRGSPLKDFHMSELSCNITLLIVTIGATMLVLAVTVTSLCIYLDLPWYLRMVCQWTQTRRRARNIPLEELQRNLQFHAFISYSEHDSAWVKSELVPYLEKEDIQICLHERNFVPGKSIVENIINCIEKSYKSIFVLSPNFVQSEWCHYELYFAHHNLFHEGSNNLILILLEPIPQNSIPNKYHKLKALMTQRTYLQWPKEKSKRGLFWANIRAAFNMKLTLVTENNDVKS
Chain of Nuclear factor NF-kappa-B complex (Homo sapiens) (P19838 whole entry, looked up): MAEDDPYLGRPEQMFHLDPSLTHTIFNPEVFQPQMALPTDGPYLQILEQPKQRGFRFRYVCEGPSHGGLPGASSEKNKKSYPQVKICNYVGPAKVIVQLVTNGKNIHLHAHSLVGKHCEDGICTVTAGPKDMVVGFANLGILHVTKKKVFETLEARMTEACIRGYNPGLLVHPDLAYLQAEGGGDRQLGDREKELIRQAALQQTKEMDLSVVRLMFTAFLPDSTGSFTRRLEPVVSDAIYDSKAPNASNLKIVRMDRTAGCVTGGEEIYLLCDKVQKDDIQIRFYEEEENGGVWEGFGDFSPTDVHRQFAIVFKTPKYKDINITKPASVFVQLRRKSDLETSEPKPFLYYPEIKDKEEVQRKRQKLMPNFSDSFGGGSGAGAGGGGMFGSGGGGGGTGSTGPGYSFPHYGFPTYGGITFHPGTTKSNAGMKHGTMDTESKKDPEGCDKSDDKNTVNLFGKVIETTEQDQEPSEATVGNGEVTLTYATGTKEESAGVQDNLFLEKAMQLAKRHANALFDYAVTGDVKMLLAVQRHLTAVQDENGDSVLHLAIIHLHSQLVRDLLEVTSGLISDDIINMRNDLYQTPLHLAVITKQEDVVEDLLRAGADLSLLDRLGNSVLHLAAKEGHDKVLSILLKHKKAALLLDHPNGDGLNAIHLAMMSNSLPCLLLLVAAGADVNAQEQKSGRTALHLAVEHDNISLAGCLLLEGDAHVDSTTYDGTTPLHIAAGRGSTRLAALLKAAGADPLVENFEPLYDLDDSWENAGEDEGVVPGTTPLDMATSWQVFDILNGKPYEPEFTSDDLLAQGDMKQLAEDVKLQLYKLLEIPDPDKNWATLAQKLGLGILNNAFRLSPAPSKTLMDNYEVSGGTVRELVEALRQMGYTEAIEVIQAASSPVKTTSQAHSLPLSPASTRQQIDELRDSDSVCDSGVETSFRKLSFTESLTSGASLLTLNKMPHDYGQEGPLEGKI
Chain of Nuclear factor NF-kappa-B complex (Homo sapiens) (Q00653 whole entry, looked up): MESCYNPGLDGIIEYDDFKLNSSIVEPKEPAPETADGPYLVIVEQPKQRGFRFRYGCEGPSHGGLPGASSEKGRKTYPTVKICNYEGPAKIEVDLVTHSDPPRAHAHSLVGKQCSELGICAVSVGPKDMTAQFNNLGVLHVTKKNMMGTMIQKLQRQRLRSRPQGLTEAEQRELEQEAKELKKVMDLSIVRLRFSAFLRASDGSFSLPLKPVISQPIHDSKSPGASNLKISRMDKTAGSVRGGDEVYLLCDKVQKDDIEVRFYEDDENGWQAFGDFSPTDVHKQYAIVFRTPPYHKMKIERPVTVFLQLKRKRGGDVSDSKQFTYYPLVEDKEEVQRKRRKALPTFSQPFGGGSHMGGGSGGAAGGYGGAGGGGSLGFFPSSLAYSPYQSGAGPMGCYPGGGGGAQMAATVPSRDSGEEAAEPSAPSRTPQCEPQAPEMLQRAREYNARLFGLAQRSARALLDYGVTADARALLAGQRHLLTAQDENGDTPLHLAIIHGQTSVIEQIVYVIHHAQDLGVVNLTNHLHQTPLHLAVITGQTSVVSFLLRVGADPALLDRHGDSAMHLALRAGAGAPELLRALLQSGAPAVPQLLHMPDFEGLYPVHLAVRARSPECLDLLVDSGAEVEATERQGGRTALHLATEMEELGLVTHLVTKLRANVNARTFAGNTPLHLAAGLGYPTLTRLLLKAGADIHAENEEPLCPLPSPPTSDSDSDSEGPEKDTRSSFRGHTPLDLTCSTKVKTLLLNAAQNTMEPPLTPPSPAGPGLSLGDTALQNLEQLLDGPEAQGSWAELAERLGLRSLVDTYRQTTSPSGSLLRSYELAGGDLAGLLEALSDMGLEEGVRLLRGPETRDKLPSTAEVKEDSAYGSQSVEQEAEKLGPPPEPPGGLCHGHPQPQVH
Chain of Nuclear factor NF-kappa-B complex (Homo sapiens) (Q04206 whole entry, looked up): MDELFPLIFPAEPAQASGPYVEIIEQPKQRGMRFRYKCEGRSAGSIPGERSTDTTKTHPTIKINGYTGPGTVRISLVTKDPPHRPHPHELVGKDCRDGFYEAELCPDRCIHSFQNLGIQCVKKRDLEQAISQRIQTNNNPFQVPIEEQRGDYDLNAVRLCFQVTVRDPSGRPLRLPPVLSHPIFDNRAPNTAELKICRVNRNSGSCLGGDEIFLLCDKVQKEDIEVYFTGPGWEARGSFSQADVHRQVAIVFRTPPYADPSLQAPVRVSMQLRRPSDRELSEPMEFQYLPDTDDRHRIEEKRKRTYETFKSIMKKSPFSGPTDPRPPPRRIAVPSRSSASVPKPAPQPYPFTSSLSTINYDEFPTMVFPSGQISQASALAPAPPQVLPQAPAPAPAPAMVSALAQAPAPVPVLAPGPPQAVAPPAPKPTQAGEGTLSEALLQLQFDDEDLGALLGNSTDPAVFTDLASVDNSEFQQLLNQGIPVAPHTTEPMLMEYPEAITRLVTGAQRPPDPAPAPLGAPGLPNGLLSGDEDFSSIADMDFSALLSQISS

CC(C)OC(=O)c1c(NC(=S)Nc2ccc(F)c3ccccc23)sc2c1CCC2
14.3%: Activity (HCT-116 [29])
2: fold change (FC) [27]
Non-Toxic: Activity [7]
370: fold change (FC) (Toll-like receptor 2 [1])
active: Activity (Toll-like receptor 2 [5]) | Activity (HEK-Blue hTLR2) Dose-Dependent Effect | Activity (THP-1 [9]) | Activity (THP-1 [11]) | Activity (THP-1 [12]) | Activity (THP-1 [14]) | Activity (THP-1 [15]) | Activity (THP-1 [16]) | Activity (THP-1 [17]) | Activity (THP-1 [18]) | Activity (THP-1 [21]) Dose-Dependent Effect | Activity (THP-1 [22]) Dose-Dependent Effect | Activity (CD4+ve Th) | Activity (THP-1 [33])
>3200: Ratio CC50/EC50 [8]
inactive: Activity [2] | Activity [3] | Activity [4] | Activity [6] | Activity (THP-1 [13]) | Activity (THP-1 [19]) | Activity (THP-1 [20]) | Activity (Macrophage [23]) | Activity (Macrophage [24]) | Activity (Macrophage [25]) | Activity [26] | Activity (MCF7 [32])
53 nM: Kd (Toll-like receptor 2 [10])
1.5 h: half-life at 250 µM [31]
25%: Activity (MCF7 [30])
25.85%: Activity (HCT-116 [28])
7: fold change (FC) (B cell)
